Laboratory results published in article PMC8049018, “A MIF‐Derived Cyclopeptide that Inhibits MIF Binding and Atherogenic Signaling via the Chemokine Receptor CXCR2” (Chembiochem, 2020).
Bridge positions count the residues as written; N and C are the ends. Ends that are not written are not given here. Peptide text beside a SMILES is read from it. Fluos = 5(6)-carboxyfluorescein

Tests used:
[1] = target: T1, CXCR2 (Homo sapiens, UniProt P25025); experiment: Receptor binding assay, flow cytometry, HEK293-CXCR2 vs HEK293-WT; details: 3.7 or 7.4 μM, on ice 2 h, HEK293-CXCR2 compared to non-transfected HEK293, flow cytometry, n=4–7
T1 construct: expressed in transfected cells
T1 sequence (P25025 1-360): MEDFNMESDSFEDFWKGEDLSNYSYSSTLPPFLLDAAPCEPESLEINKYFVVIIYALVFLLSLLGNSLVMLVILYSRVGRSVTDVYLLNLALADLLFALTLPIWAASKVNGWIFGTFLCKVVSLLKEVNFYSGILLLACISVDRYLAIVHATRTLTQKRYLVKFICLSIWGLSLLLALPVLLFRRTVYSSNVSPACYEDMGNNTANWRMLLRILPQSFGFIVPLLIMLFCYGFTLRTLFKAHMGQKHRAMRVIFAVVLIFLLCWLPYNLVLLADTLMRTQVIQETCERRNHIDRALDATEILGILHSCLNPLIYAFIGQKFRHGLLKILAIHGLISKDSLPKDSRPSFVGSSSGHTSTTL

[2] = Proteolytic stability assay in human plasma; assay type: in vitro ADME; details: 37 °C; for half-life: human plasma (citrate-anticoagulated), human plasma (citrate 10 mM, pH 7.0), peptide 200–500 μg/mL, TCA stop, intact peptide by C18 RP-HPLC (214 nm) peak area, MALDI-MS verified, three independent incubations, read-out: t1/2 in human blood plasma (converted)
Experimental: Proteolytic stability assay: Proteolytic stability studies of peptides were performed following a previously described experimental protocol.[ ^20 , ^23 ] Briefly, peptides were incubated (200–500 μg/mL) in human plasma, isolated from the blood of healthy volunteers by routine methods using citrate (10 mM, pH 7.0) as an anti‐coagulant, at 37 °C for various time intervals. At the end of each interval, a stop solution (1 : 1) containing aqueous trichloroacetic acid (TCA, 10 %, v/v) was added and the samples kept on ice for 10 min. Samples were centrifuged at 20 000 g for 4 min, the supernatants retrieved and mixed 1 : 2 with a solution of 80 % HPLC buffer B (0.05 % (v/v) TFA in 90 % (v/v) CH3CN in water) and 20 % HPLC buffer A (0.058 % (v/v) TFA in water). Samples were analyzed by RP‐HPLC (detection at 214 nm) using a Nucleosil 100 C18 column (Grace; length 33 mm, i.d. 8 mm, 7 μm particle size). ^[24] The flow rate was 2 mL/min and the samples were analyzed with an elution program consisting of 2 steps; first step: 10 % HPLC buffer B in buffer A (1 min) and second step: a gradient from 10 to 90 % HPLC buffer B in buffer A (6 min). Peaks were collected, immediately frozen, lyophilized, and their molecular weights determined by MALDI‐MS. The HPLC peak areas were used to quantify remaining peptides in plasma.

[3] = CD concentration dependence study; assay type: physicochemical; details: between 5 and 100 μM
Text: Peptides: Linear MIF‐derived peptides were generated by standard Fmoc‐based solid phase peptide synthesis (SPPS) in their N‐terminally acetylated and C‐terminally amidated forms and purified by reversed‐phase (RP)‐HPLC as previously described. ^[18] 5(6)‐Carboxyfluorescein (Fluos) N‐terminally labeled peptides were synthesized as described. ^[19] Peptide purity was verified by matrix‐assisted laser desorption ionization mass spectrometry (MALDI‐MS). Cyclic peptide derivatives MIF(cyclo0), MIF(cyclo4), MIF(cyclo6), and MIF(cyclo10), containing terminal cysteines and different numbers of glycine and serine spacer residues to tailor ring size, were custom‐synthesized and purified (>96 % purity grade) by American Peptide Company (APC), Inc./Bachem (Bubendorf, Switzerland), or as described previously, ^[20] applying standard disulfide‐based oxidation procedures. […] The sequence of the scrambled control peptide of MIF(47–56) is […].
Circular dichroism spectroscopy: CD spectra were recorded on a Jasco J‐715 spectropolarimeter in a wavelength range between 190 and 250 nm. Spectra were measured at 0.1 nm intervals and a response time of 1 s. […] Each spectrum was measured three times, averaged and smoothed after background subtraction of the buffer. […]

[4] = target: T2, Alexa‐488‐labeled recombinant MIF (Alexa‐MIF) (Homo sapiens, UniProt P14174); experiment: Fluorescence spectroscopic titration of Alexa-MIF with peptide; assay type: binding; details: Alexa-MIF 10 nM, peptide 0.1- to 1000-fold molar excess, 10 mM sodium phosphate pH 7.4, 1 % HFIP, RT, emission at 519 nm, three titrations
T2 construct: made in house
T2 sequence (P14174 1-115): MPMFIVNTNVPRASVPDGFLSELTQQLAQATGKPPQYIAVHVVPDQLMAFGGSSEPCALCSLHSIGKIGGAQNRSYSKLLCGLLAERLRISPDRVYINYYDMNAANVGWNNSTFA
Experimental: Fluorescence spectroscopy: Fluorescence spectroscopic titrations were performed on a Jasco FP‐6500 spectrofluorometer. Alexa Fluor‐488‐labelled rMIF (Alexa‐MIF) was reconstituted in 20 mM sodium phosphate buffer (pH 7.2). […] The excitation wavelength was set at 492 nm and fluorescence emission spectra were recorded between 500 and 600 nm within 2–3 min after the preparation of the mixtures at room temperature (RT).

[5] = test system: Primary human monocytes (MIF/CXCR2 axis); experiment: Transwell migration assay, MIF-induced monocyte chemotaxis; assay type: cell-based; details: peptide 5 μM, human MIF 8 nM, Transwell 5 μm pores, 3 h, 37 °C, n=3–11
Experimental: Transwell migration assay: The inhibitory potential of the MIF‐derived peptide analogues was measured by Transwell chemotaxis assay using CD14^+ monocytes isolated from PBMCs or the entire PBMC fraction, as previously described. ^[7a] Briefly, PBMCs from buffy coats or CD14+ monocytes isolated from PBMCs were diluted in RPMI1640 supplemented with 0.5 % bovine serum albumin (BSA) at a density of […] cells/mL. Cells were placed into the upper chamber of a 24‐well cell culture inserts with 5 μm pore size (Corning). 8 nM full‐length MIF served as chemoattractant and was pre‐incubated with or without 5 μM of the respective peptides and applied to the lower chamber. After a 3 h migration interval at 37 °C (5 % CO2), cells were collected and counted via a CASY Cell Counter (OLS, OMNI Life Science, Bremen, Germany).

[6] = target: T1, CXCR2; experiment: Label-free dynamic mass redistribution (DMR), HEK293-CXCR2 transfectants; assay type: cell-based; details: peptide 500 μM (MIF(47–56) also 100–500 μM), 30 s intervals
Experimental: Label‐free dynamic mass redistribution: Dynamic mass redistribution (DMR) analysis ^[22] was performed according to Perkin Elmer's instructions for label‐free DMR measurements. Briefly, cells were seeded at a density of 40 000 cells per well of an EnSpire label‐free 96‐well fibronectin‐coated cell assay microplate (PerkinElmer). Post‐seeding, the cells were equilibrated at RT for 30 min and cultivated overnight in serum‐containing DMEM/F‐12 medium. The next day, the cells were washed four times with assay buffer containing 20 mM HEPES and 1 % DMSO in HBSS (pH 7.4), using an aspiration wand leaving a residual volume of 35 μL. The plate was equilibrated at RT for 2 h. […] Before adding the peptides, baseline measurements were performed for 10 min (30 s intervals) using the EnSpire Label‐free Multimode Plate Reader (PerkinElmer). Then, 20 μL of the respective peptides were added to the cells at a final concentration of 500 μM followed by real‐time measurements over a time period of 40 min (30 s intervals). The signal output represents a cumulative response overlay of all cells.

Row | Compound | half-life [2] [min] | Concentration dependence of CD spectra (solubility/aggregation check) [3] | CXCR2-binding response (change of resonant wavelength Δpm) [6] | further results
1 | Fluos‐MIF(47–56): fluorescently labeled MIF(47–56), 5(6)‐carboxyfluorescein at the N-terminus (Fluos-MAFGGSSEPC; UniProt P14174 48-57, looked up, fragment) | – | – | – | Binding to cell surface-expressed CXCR2 (MFI) [1]: specifically bound to full‐length CXCR2
2 | CSCC[C@@H]1NC(=O)[C@H](CC(C)C)NC(=O)CNC(=O)CNC(=O)[C@H](CO)NC(=O)CNC(=O)CNC(=O)[C@@H](N)CSSC[C@@H](C(=O)O)NC(=O)CNC(=O)CNC(=O)[C@H](CO)NC(=O)CNC(=O)CNC(=O)[C@@H]2CCCN2C(=O)[C@H](CCC(=O)O)NC(=O)[C@H](CO)NC(=O)[C@H](CO)NC(=O)CNC(=O)CNC(=O)[C@H](Cc2ccccc2)NC(=O)[C@H](C)NC1=O [MIF(cyclo10)] (H-CGGSGGLMAFGGSSEPGGSGGC-OH; disulfide 1-22) | > 480 | no concentration dependence of the CD spectra | – | Time up to which appreciable amounts of intact peptide were detectable ([2]; human plasma, C18 HPLC and MALDI-MS): up to 48 h; Resistance to proteolysis relative to MIF(47–56) ([2]; human plasma, ratio of t1/2): more than 16 fold
3 | Ac-LMAFGGSSEP-NH2 [MIF(47–56)] | ~30 | no concentration dependence of the CD spectra | found to bind to HEK293‐CXCR2 transfectants | Direct binding to MIF [4]: does not directly bind to MIF; Inhibition of MIF-induced monocyte chemotaxis [5]: significantly inhibited
4 | Ac-SFESGPAGML-NH2 [scrambled control sequence, reference compound] | – | – | fully abrogated | –
